Experimental findings from patent US20260226044A1, “PREPARATION OF AN S1P RECEPTOR MODULATOR” (Oppilan Pharma Limited, priority 2023, published 2026) are described below.

For the test, the target named is T1, human S1P1 (Homo sapiens, UniProt P21453).
T1 construct: CHO-K1 Gαqi5 cells expression full-length human S1P1; expressed in transfected cells; host or cells: CHO-K1 Gαqi5 cells (membranes)
The test is described as follows: GTPγS binding assay (scintillation proximity assay, S1P1 membranes). The format is biochemical. Particulars: membranes from CHO-K1 Gαqi5 cells expressing full-length human S1P1; GTPγ35S; 60 minutes incubation. On the procedure: Example 4: GTPyS Binding Assay
S1P1 membrane is prepared from CHO-K1 Gαqi5 cells expression full-length human S1P1. Scintillation proximity assay (SPA) is performed by incubating membranes, GTPγ^35S, and compounds at various concentrations for 60 minutes. Wheat germ agglutinin-coated SPA beads are added and incubated for 60 minutes before centrifugation and scintillation counting.

Usually EC50 stands for the concentration giving half of the maximal effect. The low end stands for higher potency in that assay, the high end for lower potency in that assay.

T1 sequence (P21453 whole entry): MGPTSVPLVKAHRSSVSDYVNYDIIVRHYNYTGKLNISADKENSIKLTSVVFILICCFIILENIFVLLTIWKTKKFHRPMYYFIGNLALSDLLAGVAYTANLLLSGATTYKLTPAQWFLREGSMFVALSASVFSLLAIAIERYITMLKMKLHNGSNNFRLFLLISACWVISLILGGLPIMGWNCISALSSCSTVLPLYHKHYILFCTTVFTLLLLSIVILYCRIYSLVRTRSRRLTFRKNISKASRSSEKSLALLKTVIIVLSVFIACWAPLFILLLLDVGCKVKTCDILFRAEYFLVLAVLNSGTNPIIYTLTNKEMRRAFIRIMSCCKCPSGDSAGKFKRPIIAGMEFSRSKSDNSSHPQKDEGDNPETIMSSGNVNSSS

In the case of `O=C1CC[C@@H](Oc2cc(Cl)c(-c3noc(-c4cn5cc(C(F)(F)F)cc(Cl)c5n4)n3)cc2Cl)CN1` [Compound 1, (R)-5-(2,5-dichloro-4-(5-(8-chloro-6-(trifluoromethyl)imidazo[1,2-a]pyridin-2-yl)-1,2,4-oxadiazol-3-yl)phenoxy)piperidin-2-one], the EC50 was < 1 µM.
